# Laboratory results as given in the NIST ThermoML archive (doi:10.1016/j.fluid.2010.02.030).
# Numbers after ± are expanded uncertainties.
# Conditions: Liquid, Ebulliometric method (Recirculating still)
vapor or sublimation pressure (383.15 K) [kPa],vapor or sublimation pressure (387.74 K) [kPa],vapor or sublimation pressure (400.11 K) [kPa],vapor or sublimation pressure (408.87 K) [kPa],vapor or sublimation pressure (416.75 K) [kPa],vapor or sublimation pressure (422.84 K) [kPa],vapor or sublimation pressure (428.53 K) [kPa],vapor or sublimation pressure (433.42 K) [kPa],vapor or sublimation pressure (437.83 K) [kPa],vapor or sublimation pressure (442.22 K) [kPa],vapor or sublimation pressure (328.08 K) [kPa],vapor or sublimation pressure (336.1 K) [kPa],vapor or sublimation pressure (343.41 K) [kPa],vapor or sublimation pressure (350.44 K) [kPa],vapor or sublimation pressure (355.65 K) [kPa],vapor or sublimation pressure (360.57 K) [kPa],vapor or sublimation pressure (364.39 K) [kPa],vapor or sublimation pressure (368.05 K) [kPa],vapor or sublimation pressure (371.04 K) [kPa],SMILES
16.9 ± 0.4,20.1 ± 0.4,30.3 ± 0.4,39.8 ± 0.4,50.3 ± 0.4,60 ± 0.4,70.3 ± 0.4,80.3 ± 0.4,90.4 ± 0.4,101.4 ± 0.4,,,,,,,,,,"Cc1ccc(C)c(C)c1 [1,2,4-trimethylbenzene]"
,,,,,,,,,,23.1 ± 0.4,31.4 ± 0.4,40.9 ± 0.4,52.1 ± 0.4,61.9 ± 0.4,72.6 ± 0.4,81.9 ± 0.4,91.6 ± 0.4,100.5 ± 0.5,CCCCS [1-butanethiol]
